Reference: ChEMBL document CHEMBL4196118, “Discovery of MK-8318, a Potent and Selective CRTh2 Receptor Antagonist for the Treatment of Asthma” (ACS Med Chem Lett, 2018)
Active and inactive are the calls of the source. No cut-off for these calls is given here.

Key:
[1] = AUC (0 to 6 hrs) in rat at 3 mg/kg, iv; format: ADME, organism-based; design: time < 6 hr, dose 3 mg/kg, route intravenous; conditions: in vivo
[2] = target: Cytochrome P450 3A4 (Homo sapiens, UniProt P08684); test: Inhibition of CYP3A4 (unknown origin); format: ADME
[3] = target: Cytochrome P450 2C9 (Homo sapiens, UniProt P11712); test: Inhibition of CYP2C9 (unknown origin); format: ADME
[4] = target: Cytochrome P450 2D6 (Homo sapiens, UniProt P10635); test: Inhibition of CYP2D6 (unknown origin); format: ADME
[5] = target: T1, Nuclear receptor subfamily 1 group I member 2 (Homo sapiens, UniProt O75469); test: Activation of PXR (unknown origin)
T1 sequence (O75469 whole entry): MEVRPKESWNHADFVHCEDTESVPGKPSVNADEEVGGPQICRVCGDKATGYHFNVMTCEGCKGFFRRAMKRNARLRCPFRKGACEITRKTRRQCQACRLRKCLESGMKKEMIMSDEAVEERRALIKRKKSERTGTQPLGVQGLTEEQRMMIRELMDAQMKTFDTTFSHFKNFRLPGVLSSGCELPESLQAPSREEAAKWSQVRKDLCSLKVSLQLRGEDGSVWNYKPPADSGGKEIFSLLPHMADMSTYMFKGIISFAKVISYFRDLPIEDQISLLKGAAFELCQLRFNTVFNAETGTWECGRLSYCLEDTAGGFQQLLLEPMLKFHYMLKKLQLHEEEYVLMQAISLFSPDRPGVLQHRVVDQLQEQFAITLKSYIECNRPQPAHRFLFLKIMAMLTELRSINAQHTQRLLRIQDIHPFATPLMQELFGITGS

[6] = Clearance in rat plasma at 3 mg/kg, iv; format: ADME, organism-based
[7] = Clearance in dog plasma at 1 mg/kg, iv; format: ADME, organism-based, Canis lupus familiaris
[8] = Clearance in monkey plasma at 1 mg/kg, iv; format: ADME, organism-based, Macaca mulatta; conditions: rhesus monkey
[9] = Volume of distribution in rat at 3 mg/kg, iv; format: ADME, organism-based; conditions: in vivo
[10] = Volume of distribution in dog at 1 mg/kg, iv; format: ADME, organism-based, Canis lupus familiaris; conditions: in vivo
[11] = Volume of distribution in monkey at 1 mg/kg, iv; format: ADME, organism-based, Macaca mulatta; conditions: rhesus monkey, in vivo
[12] = Half life in rat at 3 mg/kg, iv; format: ADME, organism-based; conditions: in vivo
[13] = Half life in dog at 1 mg/kg, iv; format: ADME, organism-based, Canis lupus familiaris; conditions: in vivo
[14] = Half life in monkey at 1 mg/kg, iv; format: ADME, organism-based, Macaca mulatta; conditions: rhesus monkey, in vivo
[15] = AUC in rat at 3 mg/kg, iv; format: ADME, organism-based; conditions: in vivo
[16] = AUC in dog at 1 mg/kg, iv; format: ADME, organism-based, Canis lupus familiaris; conditions: in vivo
[17] = AUC in monkey at 1 mg/kg, iv; format: ADME, organism-based, Macaca mulatta; conditions: rhesus monkey, in vivo
[18] = Cmax in rat at 10 mg/kg, po; format: ADME, organism-based; design: dose 10 mg/kg, route oral; conditions: in vivo
[19] = Cmax in dog at 2 mg/kg, po; format: ADME, organism-based, Canis lupus familiaris; design: dose 2 mg/kg, route oral; conditions: in vivo
[20] = Cmax in rhesus monkey at 10 mg/kg, po; format: ADME, organism-based, Macaca mulatta; design: dose 10 mg/kg, route oral; conditions: in vivo
[21] = Tmax in rat at 10 mg/kg, po; format: ADME, organism-based; conditions: in vivo
[22] = Tmax in dog at 2 mg/kg, po; format: ADME, organism-based, Canis lupus familiaris; conditions: in vivo
[23] = Tmax in rhesus monkey at 10 mg/kg, po; format: ADME, organism-based, Macaca mulatta; conditions: in vivo
[24] = AUC in rat at 10 mg/kg, po; format: ADME, organism-based; conditions: in vivo
[25] = AUC in dog at 2 mg/kg, po; format: ADME, organism-based, Canis lupus familiaris; conditions: in vivo
[26] = AUC in rhesus monkey at 10 mg/kg, po; format: ADME, organism-based, Macaca mulatta; conditions: in vivo
[27] = Oral bioavailability in rat at 10 mg/kg; format: ADME, organism-based; conditions: in vivo
[28] = Oral bioavailability in dog at 2 mg/kg; format: ADME, organism-based, Canis lupus familiaris; conditions: in vivo
[29] = Oral bioavailability in rhesus monkey at 10 mg/kg; format: ADME, organism-based, Macaca mulatta; conditions: in vivo
[30] = test system: Ovis aries; test: Anti-asthmatic activity in sheep lung allergen model assessed as inhibition of antigen-induced late airway response at 1 mg/kg administered as 4 hrs iv infusion starting at 1 hr prior to antigen challenge measured 4 to 8 hrs post antigen challenge; format: functional, organism-based
[31] = test system: Ovis aries; test: Anti-asthmatic activity in sheep lung allergen model assessed as inhibition of antigen-induced airway hyper-responsiveness at 1 mg/kg administered as 4 hrs iv infusion starting at 1 hr prior to antigen challenge measured 24 hrs post antigen challenge; format: functional, organism-based
[32] = test system: Rattus norvegicus; test: (§1) Antiinflammatory activity in Brown Norway rat assessed as inhibition of OVA-induced eosinophils levels in BAL cells at 3 mg/kg, po qd for 3 days followed by aerosolized OVA challenge for 30 mins administered 2 hrs post last compound dose on day 3 measured 24 hrs post aerosolized OVA challenge relative to control; format: functional
[33] = test system: Rattus norvegicus; test: as §1, with “neutrophils” for “eosinophils”; format: functional
[34] = test system: Rattus norvegicus; test: as §1, with “total cell” for “eosinophils”; format: functional
[35] = test system: Rattus norvegicus; test: as §1, with “OVA-induced neutrophils” for “OVA-induced eosinophils”, “at 10” for “at 3”; format: functional
[36] = test system: Rattus norvegicus; test: as §1, with “at 10” for “at 3”; format: functional
[37] = test system: Rattus norvegicus; test: as §1, with “OVA-induced total cell” for “OVA-induced eosinophils”, “at 10” for “at 3”; format: functional
[38] = test system: Rattus norvegicus; test: as §1, with “at 30” for “at 3”; format: functional
[39] = test system: Rattus norvegicus; test: as §1, with “OVA-induced neutrophils” for “OVA-induced eosinophils”, “at 30” for “at 3”; format: functional
[40] = test system: Rattus norvegicus; test: as §1, with “OVA-induced total cell” for “OVA-induced eosinophils”, “at 30” for “at 3”; format: functional
[41] = target: T2, Prostaglandin D2 receptor 2 (Homo sapiens, UniProt Q9Y5Y4)
T2 sequence (Q9Y5Y4 whole entry): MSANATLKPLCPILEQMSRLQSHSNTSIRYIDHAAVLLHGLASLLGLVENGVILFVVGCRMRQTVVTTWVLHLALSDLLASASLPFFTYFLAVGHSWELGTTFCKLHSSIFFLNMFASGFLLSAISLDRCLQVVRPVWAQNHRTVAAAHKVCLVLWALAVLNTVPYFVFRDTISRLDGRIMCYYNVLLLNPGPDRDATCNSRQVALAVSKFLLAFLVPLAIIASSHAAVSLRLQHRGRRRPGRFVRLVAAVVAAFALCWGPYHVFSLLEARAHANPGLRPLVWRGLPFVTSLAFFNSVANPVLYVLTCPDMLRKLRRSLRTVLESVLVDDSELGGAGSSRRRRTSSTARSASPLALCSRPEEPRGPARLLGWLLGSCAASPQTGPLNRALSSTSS

[42] = target: T2, Prostaglandin D2 receptor 2; remark: listed apart in the source
Description: Antagonist activity at human CRTh2 expressed in CHOK1 cells assessed as inhibition of PGD2-induced beta-arrestin recruitment incubated for 30 mins followed by PGD2 stimulation measured after 60 mins by PathHunter based chemiluminescence assay

[43] = target: T2, Prostaglandin D2 receptor 2; test: biochemical
Description: Displacement of [3H]PGD2 from human CRTh2 expressed in HEK cell membranes after 60 mins by scintillation counting method

Chain of Cytochrome P450 2C9 (P11712 whole entry): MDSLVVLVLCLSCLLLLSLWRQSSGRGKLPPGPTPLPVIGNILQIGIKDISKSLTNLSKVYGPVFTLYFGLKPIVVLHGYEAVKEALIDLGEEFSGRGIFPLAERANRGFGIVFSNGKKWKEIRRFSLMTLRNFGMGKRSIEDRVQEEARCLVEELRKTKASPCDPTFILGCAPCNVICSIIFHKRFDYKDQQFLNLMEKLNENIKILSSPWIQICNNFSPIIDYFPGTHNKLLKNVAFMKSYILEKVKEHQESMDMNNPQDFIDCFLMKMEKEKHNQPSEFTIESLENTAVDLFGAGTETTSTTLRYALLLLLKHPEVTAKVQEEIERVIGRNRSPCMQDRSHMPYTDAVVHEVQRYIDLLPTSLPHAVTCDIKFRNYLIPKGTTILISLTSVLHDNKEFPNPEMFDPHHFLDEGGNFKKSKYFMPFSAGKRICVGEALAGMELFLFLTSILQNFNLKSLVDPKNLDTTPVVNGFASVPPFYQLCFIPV
Chain of Cytochrome P450 3A4 (P08684 whole entry): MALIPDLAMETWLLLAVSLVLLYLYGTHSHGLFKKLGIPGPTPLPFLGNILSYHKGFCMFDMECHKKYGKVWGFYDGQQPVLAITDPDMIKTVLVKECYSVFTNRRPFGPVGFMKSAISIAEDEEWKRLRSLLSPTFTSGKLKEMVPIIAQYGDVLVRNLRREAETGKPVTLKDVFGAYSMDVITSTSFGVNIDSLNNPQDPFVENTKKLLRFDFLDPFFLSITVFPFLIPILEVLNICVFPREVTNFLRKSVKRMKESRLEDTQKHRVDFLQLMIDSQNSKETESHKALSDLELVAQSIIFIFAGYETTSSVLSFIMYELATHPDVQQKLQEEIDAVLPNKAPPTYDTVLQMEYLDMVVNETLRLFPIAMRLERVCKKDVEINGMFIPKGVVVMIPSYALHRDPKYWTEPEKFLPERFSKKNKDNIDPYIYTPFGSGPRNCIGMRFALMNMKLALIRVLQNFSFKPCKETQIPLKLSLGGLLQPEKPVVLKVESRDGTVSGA
Chain of Cytochrome P450 2D6 (P10635 whole entry): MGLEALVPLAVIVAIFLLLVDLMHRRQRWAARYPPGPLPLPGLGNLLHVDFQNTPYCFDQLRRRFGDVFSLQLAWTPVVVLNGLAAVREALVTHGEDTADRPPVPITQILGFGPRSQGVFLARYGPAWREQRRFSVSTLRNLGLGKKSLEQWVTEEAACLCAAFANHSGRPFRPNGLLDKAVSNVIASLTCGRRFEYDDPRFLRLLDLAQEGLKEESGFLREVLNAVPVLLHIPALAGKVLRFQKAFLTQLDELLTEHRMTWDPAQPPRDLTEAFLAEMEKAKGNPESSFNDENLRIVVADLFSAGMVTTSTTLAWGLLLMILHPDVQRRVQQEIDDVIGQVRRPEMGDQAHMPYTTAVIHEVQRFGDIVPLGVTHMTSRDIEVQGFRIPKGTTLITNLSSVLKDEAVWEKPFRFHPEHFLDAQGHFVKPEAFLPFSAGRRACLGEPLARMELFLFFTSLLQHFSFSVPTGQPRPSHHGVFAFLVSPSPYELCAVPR

For `O=C(O)CCC(=O)N(C1CC1)[C@H]1c2cc(F)ccc2N(C(=O)c2ccc(OC(F)(F)F)cc2)[C@H]2CCC[C@H]21`, the AUC(0-t) at 6 h [1] was 3.35 µM·h, the “inhibition (INH)” value [2] was “Not Active” and the “inhibition (INH)” value [3] was “Not Active”. The “inhibition (INH)” value [4] was “Not Active”, the Activity [5] was “Not Active” and the clearance [6] was 29.1 mL/min/kg. For the same molecule, the clearance [7] was 9.4 mL/min/kg, the clearance [8] was 16.4 mL/min/kg and the Vd [9] was 5.8 L/kg. The Vd [10] was 2.4 L/kg, the Vd [11] was 5.8 L/kg and the half-life [12] was 7.5 h. It also gave a half-life [13] of 10.4 h, a half-life [14] of 12.9 h and an AUC [15] of 3.4 µM·h. The AUC [16] was 3.46 µM·h, the AUC [17] was 1.92 µM·h and the Cmax [18] was 2070 nM. It also gave a Cmax [19] of 2470 nM, a Cmax [20] of 5690 nM and a Tmax [21] of 0.58 h. For the same molecule, the Tmax [22] was 0.42 h, the Tmax [23] was 0.42 h and the AUC [24] was 6.77 µM·h. It also gave an AUC [25] of 8.51 µM·h, an AUC [26] of 6.76 µM·h and a bioavailability [27] of 61%. The bioavailability [28] was 121%, the bioavailability [29] was 28% and the inhibition [30] was “Active”. For the same molecule, the inhibition [31] was “Active”, the inhibition in vivo at 3 mg/kg [32] was 36% and the inhibition in vivo at 3 mg/kg [33] was 56%. It also gave an inhibition in vivo at 3 mg/kg [34] of 52%, an inhibition in vivo at 10 mg/kg [35] of 49% and an inhibition in vivo at 10 mg/kg [36] of 65%. The inhibition in vivo at 10 mg/kg [37] was 68%, the inhibition in vivo at 30 mg/kg [38] was 58% and the inhibition in vivo at 30 mg/kg [39] was 77%. For the same molecule, the inhibition in vivo at 30 mg/kg [40] was 78%, the IC50 [41] was 8 nM and the IC50 [42] was 3.5 nM. The Ki [43] was 5 nM.
